{"source": "patent EP4299736A2", "about": "“HYDROLASES AND USES THEREOF” (Vilnius University, priority 2022, dated 2024)", "experiment_in_all_cases": "Spectrophotometric assay of hydrolytic activity (kinetic parameters)", "format_in_all_cases": "biochemical", "key": {"[1]": {"molecular_target": "hydrolase variant Seq ID No:13 (site-directed mutant) (uncultured bacterium, UniProt A0ACD6BAS6, form not given/G85I)", "sequence (A0ACD6BAS6 entry or part of it G85I, form open)": "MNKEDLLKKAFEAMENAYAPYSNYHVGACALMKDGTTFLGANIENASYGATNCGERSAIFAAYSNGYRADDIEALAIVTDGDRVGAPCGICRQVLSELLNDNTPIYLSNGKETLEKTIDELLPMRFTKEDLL", "details": "potassium phosphate buffer, pH 7.5, 22 °C; 310 nm (BzdC) or 290 nm (dC)", "text": "(§1) Mutations in the hydrolase's genes were introduced using methodology based on \"Phusion™ Site-Directed Mutagenesis Kit\" (Thermo Fisher Scientific). For specific mutagenesis, primer pairs meant to amplify the whole plasmid with the target protein gene, where one primer has miss-matched base pairs in the middle, were created (Fw/Rv): […]/[…] (SEQ ID NO:10); [formula] [formula] […]/[…] (SEQ ID NO:13); [formula] [formula] […]/[…] and […]/[…] (SEQ ID NO: 16, SEQ ID NO: 17, SEQ ID NO: 18); [formula] […]/[…] (SEQ ID NO: 21); [formula] […]/[…] (SEQ ID NO: 23); […]/[…] (SEQ ID NO: 24).\n(§2) For the spectrophotometric assay, the reaction was started by adding an appropriate amount of protein to potassium phosphate buffer, pH 7.5 supplemented with 0.3, 0.15, 0.1, 0.075, 0.05, 0.0375, 0.025, 0.0125 mM N^4-benzoyl-2'-deoxycytidine, or 1, 0.8, 0.5, 0.4, 0.25, 0.2, 0.1, 0.05 mM 2'-deoxycytidine. Then, decreases in absorbance at either 310 for N^4-benzoyl-2'-deoxycytidine or 290 nm for 2'-deoxycytidine were recorded at 22 °C. Kinetic parameters (Table x) were calculated using Imfit-py 1.0.2 software fitting the experimental data to a simple Michaelis-Menten kinetics scheme. Table 5. Kinetic parameters of hydrolases. Substrate: BzdC - N4-benzoyl-2'-deoxycytidine; dC-2'-deoxycytidine."}, "[2]": {"molecular_target": "hydrolase variant Seq ID No: 12 (site-directed mutant) (uncultured bacterium, UniProt A0ACD6BAS6)", "sequence (A0ACD6BAS6 entry or part of it, change not shown)": "as the sequence (A0ACD6BAS6 entry or part of it G85I, form open) above", "details": "potassium phosphate buffer, pH 7.5, 22 °C; 310 nm; unit not given", "text": "as §1, §2"}, "[3]": {"molecular_target": "hydrolase variant Seq ID No: 10 (site-directed mutant) (uncultured bacterium, UniProt A0ACD6BAS6, DEL127-130, form not given)", "sequence (A0ACD6BAS6 entry or part of it DEL127-130)": "as the sequence (A0ACD6BAS6 entry or part of it G85I, form open) above", "details": "potassium phosphate buffer, pH 7.5, 22 °C, 310 nm", "text": "as §1, §2"}, "[4]": {"molecular_target": "hydrolase variant Seq ID No: 15 (site-directed mutant) (uncultured bacterium, UniProt A0ACD6BAS6)", "sequence (A0ACD6BAS6 entry or part of it, change not shown)": "as the sequence (A0ACD6BAS6 entry or part of it G85I, form open) above", "details": "potassium phosphate buffer, pH 7.5, 22 °C, 310 nm (BzdC) or 290 nm (dC)", "text": "as §1, §2"}, "[5]": {"molecular_target": "hydrolase variant Seq ID No: 11 (site-directed mutant) (uncultured bacterium, UniProt A0ACD6BAS6)", "sequence (A0ACD6BAS6 entry or part of it, change not shown)": "as the sequence (A0ACD6BAS6 entry or part of it G85I, form open) above", "details": "potassium phosphate buffer, pH 7.5, 22 °C, 310 nm", "text": "as §1, §2"}, "[6]": {"molecular_target": "hydrolase Seq ID No: 1 (metagenomic, wild-type hydrolase) (uncultured bacterium, UniProt A0ACD6BAS6)", "sequence (A0ACD6BAS6 entry or part of it)": "as the sequence (A0ACD6BAS6 entry or part of it G85I, form open) above", "details": "potassium phosphate buffer, pH 7.5, 22 °C", "procedure": "as §2"}, "[7]": {"test_system": "hydrolase Seq ID No: 3 (metagenomic hydrolase)", "details": "potassium phosphate buffer, pH 7.5, 22 °C", "procedure": "as §2"}, "[8]": {"details": "310 nm (BzdC) or 290 nm (dC), unit not given"}, "[9]": {"details": "absorbance decrease at 310 nm (BzdC) or 290 nm (dC), Michaelis-Menten fit"}}}
{"compound": "O=C(Nc1ccn([C@H]2C[C@H](O)[C@@H](CO)O2)c(=O)n1)c1ccccc1", "note": "[BzdC, N4-benzoyl-2'-deoxycytidine]", "values": [{"measurement": "kcat", "setting": "[1]", "value": "(2.36 ± 0.01) × 10 ^-1 s^-1"}, {"measurement": "Vmax", "setting": "[2]", "value": "(1.19 ± 0.15) × 10^-4"}, {"measurement": "kcat", "setting": "[3]", "value": "(5.41 ± 0.23) × 10^-2 s^-1"}, {"measurement": "Vmax", "setting": "[3]; unit not given", "value": "(5.49 ± 0.23) × 10^-5"}, {"measurement": "kcat", "setting": "[4]", "value": "(1.22 ± 0.09) × 10^-2 s^-1"}, {"measurement": "Vmax", "setting": "[4]; unit not given", "value": "(3.17 ± 0.25) × 10^-5"}, {"measurement": "kcat", "setting": "[5]", "value": "(3.88 ± 0.80) × 10^-2 s^-1"}, {"measurement": "Vmax", "setting": "[5]; unit not given", "value": "(4.56 ± 0.093) × 10^-5"}, {"measurement": "kcat", "setting": "[6]; 310 nm (BzdC) or 290 nm (dC)", "value": "(5.04 ± 0.4) ×10^-1 s^-1"}, {"measurement": "Vmax", "setting": "[6]; [8]", "value": "(1.00 ± 0.08) × 10^-4"}, {"measurement": "Km", "setting": "[6]; [9]", "value": 115, "unit": "µM"}, {"measurement": "kcat", "setting": "[7]; 310 nm (BzdC) or 290 nm (dC)", "value": "(3.81 +/- 0.24) × 10 ^-1 s^-1"}, {"measurement": "Vmax", "setting": "[7]; [8]", "value": "(6.55 ± 0.41) × 10^-5"}, {"measurement": "Km", "setting": "[7]; [9]", "value": 46.5, "unit": "µM"}]}
